“Also recorded” adds a separate entry of the source.
How the values were obtained:
hippocampal neurogenesis = test: 10 Gy cranial X-irradiation, microglial inflammation and hippocampal neurogenesis at 2 months; type: in vivo, rat
Experimental: Because rats are more radio resistant than humans, 10 Gy approximates a clinically relevant dose and is below the threshold to cause demyelination or overt vasculopathy in rats. This dose of X-irradiation was previously shown to spare roughly 30% of the NPC proliferative activity but completely ablate the production of neurons. X-irradiation was limited to a 1.5 cm cylinder centered over the cranium (remaining body parts were shielded). One month later, BrdU was administered systemically and at 2 months post-irradiation, brain tissues were analyzed for hippocampal neurogenesis.
Control animals were given either vehicle (5% bicarbonate) injections i.p. or plain dog food. To ensure complete consumption of food and medication in the 2 month paradigm, rats were restricted to 80% of their ad lib intake.
Irradiation Adult female Fisher 344 rats were anesthetized with ketamine and xylazine and exposed to cranial irradiation using a Philips orthovoltage X-ray system operated at 200 kVp and 20 mA. A single dose of 10 Gy was delivered to the cranium of each rat with shielding of the body, neck, eyes and snout. Dosimetry was done using TLD dosimeters (K & S Associates, Nashville, Tenn.) buried in the hippocampi, cerebellum, mouth, eyes and ears of euthanized rats. The corrected dose rate was approximately 44.5 cGy/minute. Sham-irradiated controls for all experiments received anesthesia only.
BrdU injections and tissue preparation. Animals were injected intraperitoneally with BrdU once each day for 6 days. Animals were then anesthetized and sacrificed on the 28th day after the initial BrdU injection by transcardial perfusion with 4% paraformaldehyde. Brains were removed and postfixed overnight and then equilibrated in phosphate buffered 30% sucrose. Free floating 40 μm sections were collected on a freezing microtome and stored in cryoprotectant as previously described.
Immunocytochemistry and immunofluorescent staining. […]
Cell counting and unbiased stereology. […] The proportion of BrdU cells displaying a lineage-specific phenotype was determined by scoring the co-localization of cell phenotype markers with BrdU using confocal microscopy. […] When possible, 100 or more BrdU-positive cells were scored for each marker per animal. Each cell was manually examined in its full “z”-dimension and only those cells for which the nucleus was unambiguously associated with the lineage-specific marker were scored as positive. The total number of BrdU-labeled cells per hippocampal granule cell layer and subgranule zone was determined using diaminobenzadine stained tissues. In a separate series, the total number of ED1-labeled cells per dentate gyrus was also determined using diaminobenzadine stained tissue. Stained BrdU-positive nuclei or ED1-positive cells were scored under light microscopy using Microbrightfield Stereo Investigator software and the Fractionator method. Overestimation was corrected using the Abercrombie method for nuclei with empirically determined average diameter of 13 μm within a 40 μm section.

[1] = test system: adult hippocampus-derived neural precursor cells; test: In vitro neuronal differentiation (doublecortin) of hippocampal neural progenitor cells, 60 hours; type: cell-based, rat; settings: 60 hours differentiation
Text: Neuroinflammation could inhibit neurogenesis by a variety of mechanisms, including stimulation of the HPA axis with subsequent elevation of gluccocorticoids, alterations in the relationships between progenitor cells and cells of the neuro-vasculature, or direct effects of activated microglia on the precursor cells. To determine the extent to which microglial activation might directly affect neural stem/progenitor cells, microglia were stimulated in vitro with LPS. LPS is a potent activator of microglia and up-regulates the elaboration of pro-inflammatory cytokines, including IL-6 and TNF-α. LPS-stimulated or resting microglia were then co-cultured with normal neural stem cells from the hippocampus under conditions that typically stimulate the differentiation of 30 to 40% of the progenitor cells into immature Dcx-expressing neurons (normalized to a value of 1 in FIG. 2A, control). Neurogenesis in the presence of microglia was assessed as the increase or decrease in Dcx-expressing cells relative to control. Co-culture with activated, but not resting, microglia decreased in vitro neurogenesis to approximately half of control levels (FIG. 2A). LPS added directly to precursor cells had no effect on neurogenesis.
To determine if this effect was due to soluble factors or due to cell-cell contact, hippocampal precursor cells were differentiated in the presence of media pre-conditioned by resting or activated microglia.
Activated microglia produce the potent pro-inflammatory cytokines interleukin-1β (IL-1β), tumor necrosis factor-α (TNF-α), interferon-γ (INF-γ) and interleukin-6 (IL-6). Progenitor cells were allowed to differentiate in the presence of each cytokine and the relative expression of Dcx was scored after 60 hours. […] Addition of neutralizing anti-IL-6 antibody to CM from activated microglia was able to fully restore in vitro neurogenesis (FIG. 2A). This implicated IL-6 as a key inhibitor of neurogenesis in microglial CM. […] In contrast to neurogenesis, gliogenesis was unaffected by IL-6 exposure as indicated by the lack of change in the number of cells expressing the astrocyte (glial fibrillary acidic protein, GFAP) or early oligodendrocyte (NG2) markers relative to control cultures (FIG. 2E). The hippocampal precursors used in this study do express the IL-6 receptor, as confirmed by RT-PCR (FIG. 5).
Progenitor Cell Culture Adult hippocampus-derived neural precursor cells were isolated from adult rat hippocampus and cultured as previously described. Briefly, adult female Fisher-344 rats were deeply anesthetized with sodium pentobarbital and were dissected immediately. Hippocampi were enzymatically dissociated with papain (2.5 U/ml; Worthington, Freehold, N.J.)-dispase II (1 U/ml; Boehringer Mannheim, Indianapolis, Ind.)-DNase I (250 U/ml, Worthington) solution. Digested tissue was then washed with DMEM-10% fetal calf serum (FCS) and subsequently mixed with PBS-equilibrated Percoll solution to a final concentration of 35% Percoll. The Percoll solution was made by mixing nine parts of Percoll (Amersham Pharmacia Biotech, Uppsala, Sweden) with one part of 10× PBS. The cell suspension was then fractionated by centrifugation for 10 min at 1000×gravity. Floating myelin and tissue debris were discarded and the cell pellet re-suspended in 65% Percoll solution and fractionated again by centrifugation for 10 min at 1000×g. The floating neural precursors were collected, washed free of Percoll, and plated onto poly-L-ornithine/laminin-coated dishes in DMEM/F12 (1:1) containing 10% FCS medium for 24 hrs; then medium was replaced with serum-free growth medium consisting of DMEM/F12 (1:1) supplemented with N2 supplement (Life Technologies, Gaithersburg, Md.) and 20 ng/ml of human recombinant FGF-2 (Peprotech, Rocky Hill, N.J.). Cell lines were labeled via infection with replication deficient GFP-expressing recombinant retrovirus LZRS-CAMut4GFP. […]

Compound	effect on cell fate in non-irradiated rats (hippocampal neurogenesis; indomethacin, non-irradiated)	effect on CD11b/NG2+ infiltrating peripheral monocytes (hippocampal neurogenesis; irradiated, indomethacin 2.5 mg/Kg orally every 12 hours)	proportion of proliferative cells adopting a neuronal fate (hippocampal neurogenesis; irradiated, indomethacin-treated (untreated irradiated 15%)) [%]	total newborn hippocampal neurons (hippocampal neurogenesis; irradiated, indomethacin-treated (untreated irradiated 125±25)) [newborn neurons]	total BrdU+ proliferative cells per neurogenic region of the dentate gyrus (hippocampal neurogenesis; irradiated, indomethacin-treated (untreated irradiated 828±135)) [proliferative cells]	effect on in vitro neurogenesis (Dcx-expressing cells relative to control) [1]
COc1ccc2c(c1)c(CC(=O)O)c(C)n2C(=O)c1ccc(Cl)cc1 [indomethacin]	no effect	particularly effective at decreasing; also recorded: significantly reduced	37	360±68	958±136	–
lipopolysaccharide [LPS]	–	–	–	–	–	no effect

Source: US7998460B2, “Prevention of deficits in neurogenesis with anti-inflammatory agents” (The Board of Trustees of the Leland Stanford Junior …, priority 2003, dated 2011)
